We go through 13 compounds from US20240417393A1, “CERTAIN 2,5-DIAZABICYCLO[4.2.0]OCTANES AS GLP-1 RECEPTOR MODULATORS” (ASTRAZENECA AB, priority 2021, published 2024).

By EC50 is commonly meant the concentration that produces a half-maximal response. A high value points to lower potency in that assay.

Test [1] addresses T1, GLP-1R in a pancreatic insulinoma cell line (EndoC-PH1) (Homo sapiens, UniProt P43220).
T1 construct: host or cells: EndoC-βH1 human pancreatic beta cell line
Kind of test: EndoC cAMP Accumulation Assay (HTRF). Format: cell-based. Conditions: EndoC-PH1 human pancreatic beta cell line, endogenous GLP-1R, 30 min at rt. From the text: EndoC cAMP Accumulation Assay
A HTRF cAMP assay (cAMP Gs dynamic kit; CisoBio Cat #62AM4PEJ) was used to identify agonists of GLP-1R in a pancreatic insulinoma cell line (EndoC-PH1). […] EndoC-PHlcells have detectable GLP-1R messenger ribonucleic acid (mRNA) as detected by quantitative polymerase chain reaction (qPCR). […] The EndoC-PH1 cell line is a valid model of human beta cells and applicable for screenings to identify novel drug target candidates (Mol. Metab., 2018, 8, 144-157). CisBio HTRF cAMP kits are based on a competitive immunoassay using cryptate-labelled anti-cAMP antibody and d2-labeled cAMP. The detection kit is intended for the direct is quantitative determination of cAMP. The specific signal (i.e. energy transfer) is inversely proportional to the concentration of cAMP in the standard or sample. Test compounds (10 mM in DMSO) were diluted into assay buffer (HBSS (Sigma #H8264) supplemented with 25 mM HEPES (Gibco #15630, pH 7.4), 0.1% BSA (Sigma #A3059) and 0.5 mM IBMX (Sigma #I7018) included fresh on the day of the assay) into 96 well U-bottom plates (Greiner #650201). Diluted compounds were transferred to ECHO source polypropelene plates (Labcyte #P-05525) and dose response curves were dispensed acoustically using ECHO 550 into black shallow-well u-bottom 384-well HTRF Assay Plates (Corning 4514). Cryovials of EndoC-H1 (supplied at 1×10e^7 cells/vial) were used directly for screening. The cryovials and were removed from N2(1) and thawed rapidly in a 37° C. water bath. The cells were resuspended in assay buffer and centrifuged at 300 g for 5 min. Cells were resuspended in assay buffer at the appropriate concentration, typically at 12e5 cells per mL (3000 cells per well, dependent on cell batch) and 2.5 μL diluted cells were added to all wells of destination plate by Multidrop combi reagent dispenser (Thermofisher). The plates were incubated at rt for 30 min. The assay was stopped by adding 2.5 μL anti-cAMP cryptate solution to all wells and 2.5 μL cAMP-d2 solution (both diluted 1:20 in lysis buffer) to columns 1-22 by Combi drop. A volume of 2.5 μL cAMP-d2 solution was added to wells E23 to P24 and 2.5 μL lysis buffer added to wells A23 to D24 by multichannel pipette. The plates were incubated at rt for 1 h and read on an Envision plate reader using excitation wavelength of 320 nm and emission of […] and 660 nm.
Raw data from Envision is converted to % DeltaF according to the manufacturer's instructions. Dose response curves are analysed via 4-Parameter Logistical Analysis and assay plate Z’ values obtained. Samples are graphed as percentage (%) activation plots compared to […] with assay window defined by negative control as basal cell is cAMP levels and positive control are defined by maximum GIP (82.5 nM) signal. GLP-1 (7-36 amide, Bachem H-6795) dose response curve was included on all plates.
(Time-resolved FRET reads energy transfer from a long-lived donor to a nearby acceptor.)

Another test has as its target T2, human GLP-1R receptor (Homo sapiens, UniProt P43220, L260F).
T2 construct: expressed in transfected cells; host or cells: CHO-K1 (ATCC CCL-61)
Kind of test: CHOK1 GLP-1R cAMP Assay (HTRF). In kind it is cell-based. The note with it: CHO-K1 cells stably expressing human GLP-1R (Leu260Phe variant), 20 min at rt. The method, then: A cell line stably expressing the human GLP-1R receptor (NM_002062.5, including the naturally-occurring variant Leu260Phe) in a CHO-K1 (ATCC® CCL-61™) was used for assay.
GLP-1 receptor mediated agonist activity was determined in a cell-based assay measuring cyclic adenosine monophosphate (cAMP) levels in cells using Homogeneous Time-Resolved Fluorescence (HTRF) cAMP detection kit (CisBio catalog #62AM4PEC, cAMP Gs Dynamic range kit). The cAMP detection method is based on a competitive immunoassay, in which cAMP produced by the cells and cAMP labeled with the dye d2 compete for binding to a Europium-Cryptate-labeled anti-cAMP antibody. The specific HTRF signal is inversely proportional to the concentration of cAMP.
Compounds were added to individual well in 384 well-assay plates (Greiner #784076) using an Echo (LabCyte) dispenser from 10 mM stocks. Varying concentration of compounds were added to wells, and DMSO was used to normalize each well to a volume of 100 nL. A dose response curve of GLP-1(7-36)NH2 (Bachem H-6795) was included in each run. 5 μL of cAMP concentration response standards are applied in specified wells in the assay plates. Cryo-preserved cells are thawed and resuspended in assay buffer pre-heated to 37° C. (20 mM 2-[4-(2-hydroxyethyl)piperazin-1-yl]ethanesulfonic acid (HEPES) pH 7.4, 1× Hank's Balanced Salt Solution (HBSS, Life Technologies #14065) supplemented with 0.1% (w/v) bovine serum albumin (Sigma, A-7030)). Cells were centrifuged at 250*g for 5 min at rt, and resuspended in room tempered assay buffer to a final density of 0.16*10^6 cell/mL, to deliver 800 cells/well. 5 μL of assay buffer with 1 mM 3-isobutyl-1-methylxanthin (IBMX; Sigma cat I-7018) was dispensed per well in assay plates using a multidrop combi (Thermo Scientific) subsequently 5 μL of cell suspension was distributed to relevant wells in the assay using a multidrop dispenser. Assay plates were incubated 20 min at rt.
Detection reagents, Europium-Cryptate-labeled anti-cAMP antibody and cAMP labeled with the dye d2, are diluted in lysis buffer, provided by the manufacturer. 5 μL of each detection reagent is supplemented to each assay well using a multidrop dispenser. Assay plates are incubated in the dark for at least one h. The HTRF signal is measured using the HTRF module (excitation: 337 nm, emission A: 665 nm and emission B: 620 nm) in Pherastar FSX (BMG Labtech).
Raw data were converted to pM cAMP using the cAMP standard curve included in each run. Converted data were further analyzed in Genedata Screener (Genedata) and EC50 determinations were made from agonist dose-response curves analyzed with a curve fitting is program using a 4-parameter logistic dose response equation (Equation y=A+((B-A)/1+((C/x)^D))) where A is no stimulation, B is full stimulation, C is the EC50 and D is the Hill slope). The percent effect was determined relative to a saturating concentration of a full GLP-1R agonist (GLP-1(7-36)NH2 has 100% effect in this assay setup).

T2 sequence (P43220 24-463 L260F): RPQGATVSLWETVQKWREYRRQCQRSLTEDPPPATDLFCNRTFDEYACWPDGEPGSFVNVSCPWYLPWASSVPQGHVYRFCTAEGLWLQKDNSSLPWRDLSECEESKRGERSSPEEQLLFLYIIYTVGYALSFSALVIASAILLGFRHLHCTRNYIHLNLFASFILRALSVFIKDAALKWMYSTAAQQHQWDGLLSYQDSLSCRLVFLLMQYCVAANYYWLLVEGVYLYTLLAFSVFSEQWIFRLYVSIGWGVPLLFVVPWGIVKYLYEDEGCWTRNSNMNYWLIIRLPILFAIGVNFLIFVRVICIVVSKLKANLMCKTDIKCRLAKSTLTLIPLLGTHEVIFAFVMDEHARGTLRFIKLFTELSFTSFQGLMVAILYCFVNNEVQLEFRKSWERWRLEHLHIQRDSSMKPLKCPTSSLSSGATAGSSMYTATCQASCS
T1 sequence (P43220 24-463): as the sequence (P43220 24-463 L260F) above, with F237L counted along it

Turning to `CCn1ccnc1Cn1c(CN2CCN(c3cccc4c3O[C@@](C)(c3ccc(Cl)cn3)O4)[C@H]3CC[C@@H]32)nc2c(Cl)cc(C(=O)O)cc21` (single isomer, unassigned) [Example 10c], the EC50 in test [1] amounted to 1000 nM; at human GLP-1R receptor it was 240 nM.

`C[C@]1(c2ccc(Cl)cc2F)Oc2cccc(N3CCN(Cc4nc5c(F)cc(C(=O)O)cc5n4C[C@@H]4CCO4)[C@H]4CC[C@H]43)c2O1` (single isomer, unassigned) [Example 9a]: the values for the EC50 (in test [1]; at human GLP-1R receptor) were 340 nM and 57 nM, respectively.

Consider `COc1cc(C(=O)O)cc2c1nc(CN1CCN(c3cccc4c3O[C@@](C)(c3ccc(Cl)cn3)O4)[C@H]3CC[C@@H]31)n2CCOC1CC1` (relative stereo) [Example 27, rel-2-(((1R,6R)-5-((R)-2-(5-Chloropyridin-2-yl)-2-methylbenzo[d][1,3]dioxol-4-yl)-2,5-diazabicyclo[4.2.0]octan-2-yl)methyl)-1-(2-cyclopropoxvethyl)-4-methoxy-1H-benzo[d]imidazole-6-carboxylic acid], for which the EC50 came out at 200 nM in test [1] and 65 nM at human GLP-1R receptor.

With `C[C@]1(c2ccc(Cl)cn2)Oc2cccc(N3CCN(Cc4nc5c(Cl)cc(C(=O)O)cc5n4C[C@@H]4CCO4)[C@H]4CC[C@H]43)c2O1` (single isomer, unassigned) [Example 20d, 4-Chloro-2-(((1R*,6S*)-5-((R*)-2-(5-chloropyridin-2-yl)-2-methylbenzo[d][1,3]dioxol-4-yl)-2,5-diazabicyclo[4.2.0]octan-2-yl)methyl)-1-(((S)-oxetan-2-yl)methyl)-1H-benzo[d]imidazole-6-carboxylic acid], the EC50 stood at 2.8 nM in test [1] and 2.5 nM at human GLP-1R receptor.

As to `COc1cc(C(=O)O)cc2c1nc(CN1CCN(c3cccc4c3O[C@@](C)(c3ccc(Cl)cn3)O4)[C@@H]3CC[C@@H]31)n2C[C@@H]1CCCO1` (relative stereo) [Example 8b, 2-((1R*,6S*)-5-(R*)-2-(5-Chloropyridin-2-yl)-2-methylbenzo[d][1,3]dioxol-4-yl)-2,5-diazabicyclo[4.2.0]octan-2-yl)methyl)-4-methoxy-1-(((S)-tetrahydrofuran-2-yl)methyl)-1H-benzo[d]imidazole-6-carboxylic acid], the values for the EC50 (in test [1]; at human GLP-1R receptor) were 590 nM and 400 nM, respectively.

As for `C[C@]1(c2ccc(Cl)cc2F)Oc2cccc(N3CCN(Cc4nc5ccc(C(=O)O)cc5n4C[C@@H]4CCO4)[C@H]4CC[C@H]43)c2O1` (single isomer, unassigned) [Example 18c], the EC50 amounted to 10 nM in test [1] and 5.8 nM at human GLP-1R receptor.

Turning to `C[C@]1(c2ccc(Cl)cn2)Oc2cccc(N3CCN(Cc4nc5c(Cl)cc(C(=O)O)cc5n4C[C@@H]4CCO4)[C@H]4CC[C@@H]43)c2O1` (single isomer, unassigned) [Example 3a, 4-Chloro-2-(((1R*,6R*)-5-((R*)-2-(5-chloropyridin-2-yl)-2-methylbenzo[d][1,3]dioxol-4-yl)-2,5-diazabicyclo[4.2.0]octan-2-yl)methyl)-1-(((S)-oxetan-2-yl)methyl)-1H-benzo[d]imidazole-6-carboxylic acid], the figures for the EC50 (in test [1]; at human GLP-1R receptor) were 4400 nM and 220 nM, respectively.

`C[C@]1(c2ccc(Cl)cn2)Oc2cccc(N3CCN(Cc4nc5c(F)cc(C(=O)O)cc5n4CC4(CC#N)CC4)[C@H]4CC[C@@H]43)c2O1` (single isomer, unassigned) [Example 23d]: the EC50 in test [1] is 7.6 nM; at human GLP-1R receptor, 11 nM.

Take `C[C@]1(c2ccc(Cl)cn2)Oc2cccc(N3CCN(Cc4nc5ccc(C(=O)O)cc5n4C[C@@H]4CCO4)[C@H]4CC[C@H]43)c2O1` (single isomer, unassigned) [Example 5d, 2-((1R*,6S*)-5-(R*)-2-(5-Chloropyridin-2-yl)-2-methylbenzo[d][1,3]dioxol-4-yl)-2,5-diazabicyclo[4.2.0]octan-2-yl)methyl)-1-(((S)-oxetan-2-yl)methyl)-1H-benzo[d]imidazole-6-carboxylic acid]: the EC50 in test [1] was found to be 8.6 nM; on human GLP-1R receptor it was 4.7 nM.

Consider `COc1cc(C(=O)O)cc2c1nc(CN1CCN(c3cccc4c3O[C@@](C)(c3ccc(Cl)cn3)O4)[C@H]3CC[C@@H]31)n2CC1(C#N)CC1` (single isomer, unassigned) [Example 25d], for which the EC50 turned out to be 74 nM in test [1] and 36 nM at human GLP-1R receptor.

Take `C[C@]1(c2ccc(Cl)cc2F)Oc2cccc(N3CCN(Cc4nc5ccc(C(=O)O)cc5n4C[C@@H]4CCO4)[C@H]4CC[C@H]43)c2O1` (single isomer, unassigned) [Example 18b, 2-((1R*,6S*)-5-(R*)-2-(4-Chloro-2-fluorophenyl)-2-methylbenzo[d][1,3]dioxol-4-yl)-2,5-diazabicyclo[4.2.0]octan-2-yl)methyl)-1-(((S)-oxetan-2-yl)methyl)-1H-benzo[d]imidazole-6-carboxylic acid]: the EC50 in test [1] was found to be 480 nM; at human GLP-1R receptor, 120 nM.

On to `C[C@]1(c2ccc(Cl)cn2)Oc2cccc(N3CCN(Cc4nc5c(F)cc(C(=O)O)cc5n4CC4(C#N)CC4)[C@H]4CC[C@@H]43)c2O1` (single isomer, unassigned) [Example 24a], for which the EC50 in test [1] came out at 16 nM; at human GLP-1R receptor it was 32 nM.

On to `C[C@]1(c2ccc(Cl)cc2F)Oc2cccc(N3CCN(Cc4nc5ccc(C(=O)O)cc5n4C[C@@H]4CCO4)[C@H]4CC[C@@H]43)c2O1` (single isomer, unassigned) [Example 21b, 2-(((1R*,6R*)-5-((R*)-2-(4-Chloro-2-fluorophenyl)-2-methylbenzo[d][1,3]dioxol-4-yl)-2,5-diazabicyclo[4.2.0]octan-2-yl)methyl)-1-(((S)-oxetan-2-yl)methyl)-1H-benzo[d]imidazole-6-carboxylic acid], for which the values for the EC50 (in test [1]; at human GLP-1R receptor) were 2200 nM and 340 nM, respectively.
